Measurements: patent US10597388B2, “Pyridazinone herbicides” (FMC CORPORATION, priority 2014, dated 2020)

Tests used:
Test in all cases: Test D controlled growth environment herbicide test, pre- and postemergence
Format in all cases: in vivo
[1] = system: barley, winter (winter barley, Hordeum vulgare)
Text: (§1) Seeds of plant species selected from bluegrass (annual bluegrass, Poa annua), blackgrass (Alopecurus myosuroides), Canada thistle (Cirsium arvense), canarygrass (Phalaris minor), chickweed (common chickweed, Stellaria media), geranium, cutleaf (cutleaf geranium, Geranium dissectum), galium (catchweed bedstraw, Galium aparine), bromegrass, downy (downy bromegrass, Bromus tectorum), field poppy (Papaver rhoeas), field violet (Viola arvensis), foxtail, green (green foxtail, Setaria viridis), deadnettle (henbit deadnettle, Lamium amplexicaule), ryegrass, Italian (Italian ryegrass, Lolium multiflorum), kochia (Kochia scoparia), lambsquarters (Chenopodium album), oilseed rape (Brassica napus), pigweed (Amaranthus retroflexus), chamomile (scentless chamomile, Matricaria inodora), Russian thistle (Salsola kali), speedwell (bird's-eye speedwell, Veronica persica), barley, spring (spring barley, Hordeum vulgare), wheat, spring (spring wheat, Triticum aestivum), buckwheat, wild (wild buckwheat, Polygonum convolvulus), mustard, wild (wild mustard, Sinapis arvensis), oat, wild (wild oat, Avena fatua), radish, wild (wild radish, Raphanus raphanistrum), windgrass (Apera spica-venti), barley, winter (winter barley, Hordeum vulgare), and wheat, winter (winter wheat, Triticum aestivum) were planted into a silt loam soil and treated preemergence with test chemicals formulated in a non-phytotoxic solvent mixture which included a surfactant.
(§2) At the same time, these species were planted in pots containing Redi-Earth® planting medium (Scotts Company, 14111 Scottslawn Road, Marysville, Ohio 43041) comprising spaghnum peat moss, vermiculite, wetting agent and starter nutrients and treated with postemergence applications of the test chemicals formulated in the same manner. Plants ranged in height from 2 to 18 cm (1- to 4-leaf stage). Treated plants and controls were maintained in a controlled growth environment for 14 to 21 d after which time all species were compared to controls and visually evaluated. Plant response ratings, summarized in Table D, are based on a scale of 0 to 100 where 0 is no effect and 100 is complete control. A dash (-) response means no test result.

[2] = system: blackgrass (Alopecurus myosuroides)
Text: as §1, §2

[3] = system: chickweed (common chickweed, Stellaria media)
Text: as §1, §2

[4] = system: deadnettle (henbit deadnettle, Lamium amplexicaule)
Text: as §1, §2

[5] = system: foxtail, green (green foxtail, Setaria viridis)
Text: as §1, §2

[6] = system: galium (catchweed bedstraw, Galium aparine)
Text: as §1, §2

kochia (Kochia scoparia) = system: kochia (Kochia scoparia)
Text: as §1, §2

[7] = system: lambsquarters (Chenopodium album)
Text: as §1, §2

[8] = system: pigweed (Amaranthus retroflexus)
Text: as §1, §2

[9] = system: ryegrass, Italian (Italian ryegrass, Lolium multiflorum)
Text: as §1, §2

[10] = system: speedwell (bird's-eye speedwell, Veronica persica)
Text: as §1, §2

[11] = system: wheat, winter (winter wheat, Triticum aestivum)
Text: as §1, §2

[12] = system: windgrass (Apera spica-venti)
Text: as §1, §2

[13] = Postemergence, 31 g ai/ha, scale 0 to 100 (0 no effect, 100 complete control)
[14] = Postemergence, 125 g ai/ha, visual rating on scale 0 (no effect) to 100 (complete control), 14 to 21 d
[15] = Postemergence, 250 g ai/ha, scale 0 to 100 (0 no effect, 100 complete control)
[16] = Preemergence, 62 g ai/ha, scale 0 to 100 (0 no effect, 100 complete control)
[17] = Preemergence, 125 g ai/ha, scale 0 to 100 (0 no effect, 100 complete control)
[18] = Preemergence, 250 g ai/ha, scale 0 to 100 (0 no effect, 100 complete control)
[19] = postemergence, 62 g ai/ha, scale 0 to 100, 0 no effect, 100 complete control

In the case of CCC(=O)Oc1c(C)nn(C)c(=O)c1-c1c(C)sc2c(C)cc(C)cc12 [Compound 28], the “Plant response rating, Barley, Winter” value [1, 13] is reported as 0, the “Plant response rating, Barley, Winter” value [1, 14] is reported as 5 and the “Plant response rating, Barley, Winter” value [1, 15] is reported as 5. For the same compound, the “Plant response rating (scale of 0 to 100), Barley, Winter” value ([1]; Preemergence, 31 g ai/ha) was 0, the “Plant response rating, Barley, Winter” value [1, 16] was 0 and the “Plant response rating, Barley, Winter” value [1, 17] was 15. For the same compound, the “Barley, Winter plant response rating” value [1, 18] was 15, the “Plant response rating, Barley, Winter” value [1, 19] was 0 and the “Blackgrass plant response rating” value [2, 13] was 75. For the same compound, the “Plant response rating, Blackgrass” value [2, 14] was 85, the “Plant response rating, Blackgrass” value [2, 15] was 85 and the “Plant response rating (scale of 0 to 100), Blackgrass” value ([2]; Preemergence, 31 g ai/ha) was 85. The “Plant response rating, Blackgrass” value [2, 16] was 85, the “Plant response rating, Blackgrass” value [2, 17] was 85 and the “Blackgrass plant response rating” value [2, 18] was 95. For the same compound, the “Plant response rating, Blackgrass” value [2, 19] was 80, the “Chickweed plant response rating” value [3, 13] was 100 and the “Plant response rating, Chickweed” value [3, 14] was 100. For the same compound, the “Plant response rating, Chickweed” value [3, 15] was 100, the “Plant response rating (scale of 0 to 100), Chickweed” value ([3]; Preemergence, 31 g ai/ha) was 100 and the “Plant response rating, Chickweed” value [3, 16] was 100. The “Plant response rating, Chickweed” value [3, 17] was 100, the “Plant response rating, Chickweed” value [3, 18] was 100 and the “Plant response rating, Chickweed” value [3, 19] was 100. For the same compound, the “Deadnettle plant response rating” value [4, 13] was 10, the “Plant response rating, Deadnettle” value [4, 14] was 35 and the “Plant response rating, Deadnettle” value [4, 15] was 70. The “Plant response rating (scale of 0 to 100), Deadnettle” value ([4]; Preemergence, 31 g ai/ha) was 0, the “Plant response rating, Deadnettle” value [4, 16] was 0 and the “Plant response rating, Deadnettle” value [4, 17] was 5. For the same compound, the “Plant response rating, Deadnettle” value [4, 18] was 5, the “Plant response rating, Deadnettle” value [4, 19] was 35 and the “Foxtail, Green plant response rating” value [5, 13] was 65. For the same compound, the “Plant response rating, Foxtail, Green” value [5, 14] was 85, the “Plant response rating, Foxtail, Green” value [5, 15] was 90 and the “Plant response rating (scale of 0 to 100), Foxtail, Green” value ([5]; Preemergence, 31 g ai/ha) was 70. For the same compound, the “Plant response rating, Foxtail, Green” value [5, 16] was 80, the “Plant response rating, Foxtail, Green” value [5, 17] was 100 and the “Plant response rating, Foxtail, Green” value [5, 18] was 100. For the same compound, the “Plant response rating, Foxtail, Green” value [5, 19] was 75, the “Galium plant response rating” value [6, 13] was 100 and the “Plant response rating, Galium” value [6, 14] was 100. The “Plant response rating, Galium” value [6, 15] was 100, the “Plant response rating (scale of 0 to 100), Galium” value ([6]; Preemergence, 31 g ai/ha) was 15 and the “Plant response rating, Galium” value [6, 16] was 60. The “Plant response rating, Galium” value [6, 17] was 85, the “Plant response rating, Galium” value [6, 18] was 100 and the “Plant response rating, Galium” value [6, 19] was 100. The “Kochia plant response rating” value (kochia (Kochia scoparia); [13]) was 35, the “Plant response rating, Kochia” value (kochia (Kochia scoparia); [14]) was 50 and the “Plant response rating, Kochia” value (kochia (Kochia scoparia); [15]) was 75. For the same compound, the “Plant response rating (scale of 0 to 100), Kochia” value (kochia (Kochia scoparia); Preemergence, 31 g ai/ha) was 20, the “Plant response rating, Kochia” value (kochia (Kochia scoparia); [16]) was 20 and the “Plant response rating, Kochia” value (kochia (Kochia scoparia); [17]) was 30. For the same compound, the “Plant response rating, Kochia” value (kochia (Kochia scoparia); [18]) was 65, the “Plant response rating, Kochia” value (kochia (Kochia scoparia); [19]) was 40 and the “Lambsquarters plant response rating” value [7, 13] was 80. The “Plant response rating, Lambsquarters” value [7, 14] was 90, the “Plant response rating, Lambsquarters” value [7, 15] was 90 and the “Plant response rating (scale of 0 to 100), Lambsquarters” value ([7]; Preemergence, 31 g ai/ha) was 100. The “Plant response rating, Lambsquarters” value [7, 16] was 100, the “Plant response rating, Lambsquarters” value [7, 17] was 100 and the “Plant response rating, Lambsquarters” value [7, 18] was 100. For the same compound, the “Plant response rating, Lambsquarters” value [7, 19] was 85, the “Pigweed plant response rating” value [8, 13] was 75 and the “Plant response rating, Pigweed” value [8, 14] was 100. The “Plant response rating, Pigweed” value [8, 15] was 90, the “Plant response rating (scale of 0 to 100), Pigweed” value ([8]; Preemergence, 31 g ai/ha) was 90 and the “Plant response rating, Pigweed” value [8, 16] was 100. For the same compound, the “Plant response rating, Pigweed” value [8, 17] was 100, the “Plant response rating, Pigweed” value [8, 18] was 100 and the “Plant response rating, Pigweed” value [8, 19] was 90. The “Ryegrass, Italian plant response rating” value [9, 13] was 75, the “Plant response rating, Ryegrass, Italian” value [9, 14] was 80 and the “Plant response rating, Ryegrass, Italian” value [9, 15] was 85. The “Plant response rating (scale of 0 to 100), Ryegrass, Italian” value ([9]; Preemergence, 31 g ai/ha) was 90, the “Plant response rating, Ryegrass, Italian” value [9, 16] was 95 and the “Plant response rating, Ryegrass, Italian” value [9, 17] was 100. The “Plant response rating, Ryegrass, Italian” value [9, 18] was 100, the “Plant response rating, Ryegrass, Italian” value [9, 19] was 80 and the “Speedwell plant response rating” value [10, 13] was 60. For the same compound, the “Plant response rating, Speedwell” value [10, 14] was 100, the “Plant response rating, Speedwell” value [10, 15] was 100 and the “Plant response rating (scale of 0 to 100), Speedwell” value ([10]; Preemergence, 31 g ai/ha) was 95. For the same compound, the “Plant response rating, Speedwell” value [10, 16] was 95, the “Plant response rating, Speedwell” value [10, 17] was 95 and the “Plant response rating, Speedwell” value [10, 18] was 100. The “Plant response rating, Speedwell” value [10, 19] was 85, the “Wheat, Winter plant response rating” value [11, 13] was 5 and the “Plant response rating, Wheat, Winter” value [11, 14] was 5. For the same compound, the “Plant response rating, Wheat, Winter” value [11, 15] was 15, the “Plant response rating (scale of 0 to 100), Wheat, Winter” value ([11]; Preemergence, 31 g ai/ha) was 0 and the “Plant response rating, Wheat, Winter” value [11, 16] was 0. The “Plant response rating, Wheat, Winter” value [11, 17] was 0, the “Plant response rating, Wheat, Winter” value [11, 18] was 0 and the “Plant response rating, Wheat, Winter” value [11, 19] was 5. For the same compound, the “Windgrass plant response rating” value [12, 13] was 70, the “Plant response rating, Windgrass” value [12, 14] was 85 and the “Plant response rating, Windgrass” value [12, 15] was 85. The “Plant response rating (scale of 0 to 100), Windgrass” value ([12]; Preemergence, 31 g ai/ha) was 70, the “Plant response rating, Windgrass” value [12, 16] was 75 and the “Plant response rating, Windgrass” value [12, 17] was 90. The “Plant response rating, Windgrass” value [12, 18] was 100 and the “Plant response rating, Windgrass” value [12, 19] was 80.
